The source of these data is PubChem BioAssay AID1117319 (Southern Research Institute, 2015).

The structures appear in SMILES notation. Inconclusive results are not listed. Where only a bound is given, the exact number is not on record here.

This assay concerns the target Virion infectivity factor (Human immunodeficiency virus type 1 group M subtype B (isolate BH10)) + Virion infectivity factor (Human immunodeficiency virus type 1 group M subtype B (isolate BRU/LAI)) + Virion infectivity factor (Human immunodeficiency virus type 1 group M subtype B (isolate PCV12)) + Virion infectivity factor (Human immunodeficiency virus type 1 group M subtype B (isolate HXB2)) + DNA dC->dU-editing enzyme APOBEC-3G (Homo sapiens) (UniProt P69720+P69721+P69722+P69723+Q9HC16). Put plainly: inhibitors of Vif binding to APOBEC3G peptide, primary screen, biochemical, TR-FRET, GST-Vif 1-94, biotin-A3G peptide, dose response retest (AID 1117319).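 Also: Vif residues 1-94 fused to GST binding biotinylated APOBEC3G peptide 110-148.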
Usually IC50 stands for the point on the concentration scale where inhibition reaches its midpoint. In the case of `COc1cc2c3c(c1OC)C1(C=CC(=O)C=C1)CC3N(C(=O)CCC(=O)O)CC2` (configuration not stated), the IC50 was 13.3 µM.

For `c1coc(-c2nc3ccccc3nc2-c2ccco2)c1`, the IC50 is 1.39 µM. On to `O=C(O)CSc1c2c(nc3cc(C(=O)Nc4cccc(C(F)(F)F)c4)ccc13)CCC2`, for which the IC50 is 13.4 µM.

Consider `CC(=O)Nc1ccc(N/C=C/C(=O)C(C)(C)C)cc1`, for which the IC50 was 40.8 µM. `CN1C(=O)/C(=C/c2cccn2-c2ccc3ccccc3c2)C(=O)NC1=S`: the IC50 is less than 8.17 µM.

With `Nc1cc(C(=O)O)ccc1N1CCCCC1`, the IC50 is 15 µM. On to `CCOc1ccc(-n2c(=O)c3c(C)c(C)sc3n(CC(=O)NCc3ccco3)c2=O)cc1`, for which the IC50 was 74.9 µM. Next, `Cc1ccc(C(=O)N/N=C\c2cc(Br)c(Br)o2)cn1`: 6.24 µM; `COC/C=C/C1=CC2=CC(=O)C(C)(OC(=O)C3CCCC3)C(=O)C2=CO1` (configuration not stated): 2.75 µM; `COc1ccc(S(=O)(=O)Nc2cc(SCC(=O)O)c(O)c3ccccc23)cc1`: 22.1 µM. Next, `Cc1nc(C)c(C(=O)Nc2nc3c(C)cccc3s2)o1`: 32 µM; `Cc1cc(C)cc(Nc2ccc(C(=O)O)cc2N)c1`: 26.1 µM; `O=C1/C(=C/C=C/c2ccco2)SC(=S)N1c1ccc(O)cc1`: 2.57 µM. Next, `Cn1cccc1/C=C1\C(=O)NC(=O)N(Cc2ccco2)C1=O`: 9.46 µM; `Cc1ccc2c(c1)c(=O)c1c3n2CCN(C(=O)CCl)C3CC1` (configuration not stated): 10.8 µM. For the compound `Cc1ccc(C=C2C(Cl)=C(Cl)C(Cl)=C2Cl)cc1`, the IC50 is 2.1 µM. Next, `COc1cc(C2Nc3ccccc3C(=O)N2c2ccccc2)ccc1O` (configuration not stated): 39.4 µM. Consider `NCCc1c[nH]c2ccccc12`, for which the IC50 was 1.66 µM. Next, `Cc1cccc(-n2nc3c(c2NC(=O)c2ccc(Br)o2)CSC3)c1`: 63.6 µM. For the compound `O=C1NC(=O)C(=Cc2ccco2)C(=O)N1`, the IC50 was 19.9 µM. Next, `CCOc1ccc2[nH]c(=O)c(CN(Cc3nnnn3Cc3ccco3)C3CCCCC3)cc2c1`: 4.82 µM; `O=S(=O)(O)c1cc(O)c2c(O)c(N=Nc3cc(Cl)ccc3O)c(S(=O)(=O)O)cc2c1`: 78.5 µM; `Nc1cc(N)nc(SCc2cc([N+](=O)[O-])cc3c2OCOC3)n1`: 74.1 µM. With `O=C(c1ccccc1Br)N1CCN(c2ccccc2)CC1` the figure was 38.7 µM; with `O=C(O)CCCCC1CCSS1` (configuration not stated), 7.67 µM. With `CC(C)CN(C(=O)CN1CCN(c2ccc(O)cc2)CC1)c1c(N)n(CC(C)C)c(=O)[nH]c1=O` the figure was 12.3 µM; with `CCOC(=O)C1CCN(C(=O)COc2ccc(S(=O)(=O)NC(C)C)cc2)CC1`, 27.8 µM; with `Oc1ccc(N=Cc2ccc(OCc3ccccc3)cc2)cc1`, 2.11 µM.

As for `O=C1NC(=S)NC1=Cc1ccco1`, the IC50 is 11.3 µM. Next, `O=S(=O)(O)c1cc(Cl)cc(N=Nc2ccc(O)cc2O)c1O`: 49.4 µM; `CCn1c(SCC(=O)Nc2cc(C)on2)nnc1-c1cccnc1`: 9.51 µM; `Nc1nc(Sc2ccc([N+](=O)[O-])c3nonc23)c2[nH]cnc2n1`: 10.9 µM. Regarding `c1ccc2c(c1)CCCN2Cc1nnc2n1CCCCC2`, the IC50 was 31.5 µM.

On to `COc1cc(C2C(C#N)=C(N)N(c3cccnc3)C3=C2C(=O)CCC3)ccc1O` (configuration not stated), for which the IC50 is 13.6 µM. With `NC(=O)C1CCN(C2=C(Cl)C(=O)c3ccccc3C2=O)CC1` the figure was 2.5 µM; with `COC(=O)c1ccccc1NC(=O)c1noc2c1CCC2`, 26 µM; with `C/C(N)=C(/C#N)C(=O)CSc1nnc(NC(C)C)s1`, 9.7 µM.
